The values below come from patent publication US6132711A, “Enzymatic antioxidant of allene oxide for lipid peroxidation in biological systems” (Arizona Board of Regents, priority 1997, dated 2000).

Where “and” joins values, the source holds several entries; their conditions need not be identical. Identical values can stand only once.

For assay [1], the target named is T1, AOS (Parthenium argentatum, UniProt Q40778).
T1 sequence (Q40778 1-473): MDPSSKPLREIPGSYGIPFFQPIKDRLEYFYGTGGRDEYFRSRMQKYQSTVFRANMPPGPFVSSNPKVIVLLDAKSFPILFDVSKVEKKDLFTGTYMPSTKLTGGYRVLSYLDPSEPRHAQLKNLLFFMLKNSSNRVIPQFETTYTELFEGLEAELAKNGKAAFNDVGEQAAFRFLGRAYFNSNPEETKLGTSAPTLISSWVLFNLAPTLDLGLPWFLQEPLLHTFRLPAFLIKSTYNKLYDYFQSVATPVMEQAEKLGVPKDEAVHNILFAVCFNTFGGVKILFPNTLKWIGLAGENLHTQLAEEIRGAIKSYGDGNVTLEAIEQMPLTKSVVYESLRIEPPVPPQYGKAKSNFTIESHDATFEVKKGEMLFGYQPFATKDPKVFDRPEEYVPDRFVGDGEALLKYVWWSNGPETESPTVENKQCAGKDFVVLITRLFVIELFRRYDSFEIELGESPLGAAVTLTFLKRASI
Kind of assay: Fluorescence spectroscopy of rubber particles incubated with AOS inhibitors. The format is biochemical, guayule. Further details: from tissue; host or cells: washed rubber particles of guayule, carrying the endogenous AOS. The note with it: native rubber particles incubated with 1 mM inhibitor. How it is done: Rubber particle suspensions containing approximately 5×10^10 particles ml^-1 or 100 μg μl^-1 rubber were extracted for lipids and analyzed according to Yao et al., J Cell Biochem 51: 488-494 (1993); Eldred, Anal. Biochem. 64: 23-36 (1987), Malshet et al., Lipids 9: 328-332 (1974) and above (see sec. 8.1) using a FluoroMax spectrofluoromoeter (JY/SPEX Instruments SA, Inc.) with an excitation maxima of 300 nm and an emission maxima of 405 nm. Background fluorescence was automatically subtracted. […] The effect of pH on relative fluorescence spectroscopy was performed. The effect of pH on relative fluorescence intensities was also determined on lipids extracted from rubber particle lipids according to Malshet et al., Lipids 9: 328-332 (1974).

Assay [2] concerns rubber transferase (RuT). Nature of the assay: Rubber transferase assay in washed rubber particles ([14C]-IPP incorporation). The format is biochemical, guayule. Further details: inhibition of RuT activity / inhibition of rubber biosynthesis: concentration or dose not given beside the values. On the procedure: RuT assays were performed according to Cornish and Backhaus, Phytochemistry 29: 3809-3813 (1990) using a final reaction volume of 500 μl containing, at final concentration, 3.5 mM MgCl2, 2.5 mM MnCl2 26.7 μM FPP, 85 μM IPP and 1.48 μCi[^14 C]-IPP (sp. act. 57 mCi mM^-1 NEN DuPont) in 50 mM potassium phosphate buffer, pH 8.0. The reaction was initiated by the addition of 200 μl of fresh, triple-washed rubber particle suspensions containing 10-20 mg rubber. Control reactions were made to test IPP incorporation into rubber by omitting FPP or adding 50 mM EDTA to the reaction (Cornish and Backhaus, Phytochem. 29: 3809-3813 (1990)). To control AOS activity, one or more of the following was added to the reaction mix (final concentration): 0.5 to 2 mM SA, 0.5 to 2 mM ASA, 11.2 μM riboflavin plus 11.2 mM TEMED, 0.003% H2 O2, 2.0 U type II porcine pancreatic lipase (Sigma #L-3126) or 9450 U type V soybean lipoxygenase (Sigma #L-6632). These additions were made directly to the washed rubber particles and incubated for 20 min before adding to them to the reaction mix. In reactions that required dark conditions (to prevent the formation of superoxide), assay tubes were foil wrapped. […] H2 O2 was added directly to the particles and incubated for at least 20 min before adding SA or ASA. All RuT assays were run at 15° C. for 16 hours and activity was determined according to Cornish and Backhaus, Phytochemistry 29: 3809-3813 (1990) using liquid scintillation spectroscopy with toluene-based scintillant.

Assay [3] has as its target T1, AOS. Kind of assay: Superoxide/colorimetry (riboflavin/TEMED/NBT) assay. The settings on record: for NBT color after superoxide: rubber particles incubated with inhibitor.
Procedure: A 1-5 μl suspension of fatty acids or rubber particles (at 100 μg μl^-1) was added directly to 200 μl 50 mM potassium phosphate buffer, pH 8.0 containing 2.8 μM riboflavin and 28 mM tetramethyllethylenediamine (TEMED). […] Superoxide was generated by exposing the combined particles and riboflavin/TEMED solution to light, provided by a 100 W bulb, spaced 30 cm from the suspension, for 10 minutes. The degree of reduction was then determined by adding 200 μl 50 mM potassium phosphate buffer, pH 8.0 containing 2.45 mM nitroblue tetrazolium (NBT) and monitoring for 10 min. Reduction of NBT caused a yellow to blue color change. The effect of CO on AOS inhibition and its reversal by exposure to high light was tested by placing the CO and O2 treated suspension directly in front of a water-cooled, slide projector lamp and exposing the mixture to bright light for 1, 5 or 10 min before performing the NBT assay.
If SOD is present, NBT remains yellow. […] If AOS were active, rubber particles would be protected from peroxidation and NBT would be reduced by superoxide resulting in a blue color. However, if AOS were inactivated, then rubber particles would act as a sink for superoxide and NBT would not be reduced to blue tetrasodium,or would be reduced at a slower rate. For this assay to work, endogenous SOD must not be present in rubber particles.
For assay [4], the target named is T1, AOS. Nature of the assay: Conjugated dienes in lipids extracted from rubber particles incubated with H2O2 (A234). The settings on record: 1 mM inhibitor, 0.05% H2O2. The format is biochemical, guayule. Further details: from tissue; host or cells: washed rubber particles of guayule, carrying the endogenous AOS. From the text: Lipids from these particles were extracted and analyzed spectrophotometrically at 234 nm according to Aust, Lipid peroxidation, In: Greenwald R (ed) CRC Handbook of Methods for Oxygen Radical Research, CRC Press, Boca Raton, pp. 203-207 (1985).

The target in assay [5] is T1, AOS. The note with it: for fluorescence over 24 hr, AOS inhibited and antioxidant present: rubber particles, 1 mM ASA plus 1% antioxidant.
In assay [6] the test system is linoleic acid conjugated dienes. Nature of the assay: UV spectrophotometry of superoxide-induced linoleic acid conjugated dienes (A234). The format is biochemical, guayule. The settings on record: AOS preincubated with 1 mM ASA, then linoleic acid + riboflavin/TEMED. How it is done: Likewise, the effect of superoxide, produced by the riboflavin/TEMED mixture and light, on lipid peroxidation was determined. […] The mixture was exposed to light and scanned in a UV spectrophotometer at 200 to 300 nm at 10 sec intervals for 2 minutes and again at 5 and 10 min. The effect of AOS on superoxide-inducedlinoleic hydroperoxides was determined using partially pure AOS solubilized from fresh rubber particles using the CHAPS extraction and filtration procedure (Pan et al., J Biol Chem 270: 8487-8494, 1995), which removed all remaining rubber. One μg partially pure AOS was added to oxidized linoleic acid and UV scanned at 2 minute intervals.
This mixture was scanned at A234 followed by addition of riboflavin/TEMED and exposure to 10 min. of light, to produce superoxide. The mixture was rescanned at 10 min intervals.

The mark [7] stands for this setting: salicylate + H2O2 in place of superoxide.
The mark [8] stands for this setting: salicylate + non-photoreduced riboflavin/TEMED (no superoxide), compared to controls.
[9] abbreviates: salicylate + superoxide (riboflavin/TEMED plus light).

Take `O=C(O)c1ccccc1O` [SA, salicylic acid]: the “fluorescence of rubber particles” value in assay [1] is “Identical fluorescence patterns”. In addition, the “drop in RuT activity” value in assay [2] (1 mM SA alone, 960 min) is on record as 10-30%. The RuT activity in assay [2] (1 mM SA alone, Experiment 1) is 402.5 ± 18.2 nmol IPP mg^-1 dry rubber 16 hr^-1; in assay [2] (1 mM SA alone, Experiment 2), 320.4 ± 4.5 nmol IPP mg^-1 dry rubber 16 hr^-1; in assay [2] (1 mM SA alone, Experiment 3) it was 315.9 ± 10.6 nmol IPP mg^-1 dry rubber 16 hr^-1; in assay [2] (1 mM inhibitor, riboflavin/TEMED + light (superoxide)) it was 74.2 ± 1.29 nmol IPP mg^-1 dry rubber 16 hr^-1 and 98.3 ± 1.56 nmol IPP mg^-1 dry rubber 16 hr^-1 and 74.2 ± 1.3 nmol IPP mg^-1 dry rubber 16 hr^-1; in assay [2] (1.5 mM inhibitor, no superoxide (dark)), 236.7 ± 3.0 nmol IPP mg^-1 dry rubber 16 h; in assay [2] (1.5 mM inhibitor, superoxide (light)) it was 105.3 ± 3.2 nmol IPP mg^-1 dry rubber 16 h. Besides, the RuT activity entry is “severely inhibited” in assay [2] (2 mM SA, photo reduced and non-photo reduced riboflavin/TEMED); 25.1 ± 1.2 nmol IPP mg^-1 dry rubber 16 h in assay [2] (2 mM inhibitor, no superoxide (dark)); 18.5 ± 9.24 nmol IPP mg^-1 dry rubber 16 hr^-1 in assay [2] (2 mM inhibitor, superoxide (light)). In addition, the “inhibition of RuT activity” value is 89% in assay [2] (setting [7]), 20% in assay [2] (setting [8]) and 88% in assay [2] (setting [9]). The “NBT color after superoxide” value in assay [3] was “yellow”.

Turning to `OCc1ccccc1O[C@@H]1O[C@H](CO)[C@@H](O)[C@H](O)[C@H]1O` [SAL, salicin], the “fluorescence of rubber particles” value in assay [1] is given as “did not fluoresce”.

Turning to `CC(=O)Oc1ccccc1C(=O)O` [ASA, acetylsalicylic acid], in assay [4], the “conjugated diene formation in extracted lipids (A234)” value was “Conjugated dienes formed only when AOS was inhibited by ASA in the presence of H2 O2”. The “fluorescence of rubber particles” value in assay [1] is reported as “striking increase in fluorescence”. For the same molecule, in assay [5] (rubber particles in presence of 1 mM ASA), the “fluorescence over 24 hr” value is “fluorescence increased up to 12 hours and then plateaued”. Besides, the RuT activity in assay [2] (0.5 mM inhibitor, riboflavin/TEMED + dark (no superoxide)) is 599.3 ± 11.8 nmol IPP mg^-1 dry rubber 16 hr^-1; in assay [2] (1 mM inhibitor, riboflavin/TEMED + dark (no superoxide)) it was 421.6 ± 105.4 nmol IPP mg^-1 dry rubber 16 hr^-1. Moreover, the entries for the “inhibition of RuT activity” value in assay [2] (setting [7]), in assay [2] (setting [8]) and in assay [2] (setting [9]) were 89%, 20% and 88%, respectively. In assay [3], the “NBT color after superoxide” value is “yellow”. Moreover, the “A234 on exposure to superoxide, AOS first incubated with inhibitor” value in assay [6] was “notable increase in A234”.

For `Cc1c(C)c2c(c(C)c1O)CCC(C)(CCCC(C)CCCC(C)CCCC(C)C)O2` (stereo not drawn) [α-tocopherol], the “fluorescence over 24 hr, AOS inhibited and antioxidant present” value in assay [5] is reported as “slight increase in fluorescence”.

As to `[C-]#[O+]` [CO, carbon monoxide], the “restoration of AOS activity” value in assay [3] (CO-bound-AOS in rubber particles, high light 1 min) was “partial restoration of AOS”; in assay [3] (CO-bound-AOS in rubber particles, high light 5 min) it was “maximum restoration of AOS activity”. The AOS activity result in assay [3] (CO-bound-AOS in rubber particles, more than 5 min high light) is “reduction in AOS activity”. In addition, the “NBT color when CO inhibition was reversed by strong light” value in assay [3] (CO-treated rubber particles, strong light) is reported as “grayish yellow”. Moreover, the “NBT color after superoxide” value in assay [3] is given as “yellow”.

Regarding `Cc1cc(C(C)(C)C)c(O)c(C(C)(C)C)c1` [BHT], the “fluorescence over 24 hr, AOS inhibited and antioxidant present” value in assay [5] was “slight increase in fluorescence”.

With `O=C(O)c1cc(S(=O)(=O)O)ccc1O` [5SSA, 5-sulfosalicylic acid], the “fluorescence of rubber particles” value in assay [1] is “did not fluoresce”.

B1: lipoxygenase: type V soybean lipoxygenase (Sigma #L-6632) (protein, UniProt P08170 1-839, looked up)
Seed linoleate …: MFSAGHKIKGTVVLMPKNELEVNPDGSAVDNLNAFLGRSVSLQLISATKADAHGKGKVGKDTFLEGINTSLPTLGAGESAFNIHFEWDGSMGIPGAFYIKNYMQVEFFLKSLTLEAISNQGTIRFVCNSWVYNTKLYKSVRIFFANHTYVPSETPAPLVSYREEELKSLRGNGTGERKEYDRIYDYDVYNDLGNPDKSEKLARPVLGGSSTFPYPRRGRTGRGPTVTDPNTEKQGEVFYVPRDENLGHLKSKDALEIGTKSLSQIVQPAFESAFDLKSTPIEFHSFQDVHDLYEGGIKLPRDVISTIIPLPVIKELYRTDGQHILKFPQPHVVQVSQSAWMTDEEFAREMIAGVNPCVIRGLEEFPPKSNLDPAIYGDQSSKITADSLDLDGYTMDEALGSRRLFMLDYHDIFMPYVRQINQLNSAKTYATRTILFLREDGTLKPVAIELSLPHSAGDLSAAVSQVVLPAKEGVESTIWLLAKAYVIVNDSCYHQLMSHWLNTHAAMEPFVIATHRHLSVLHPIYKLLTPHYRNNMNINALARQSLINANGIIETTFLPSKYSVEMSSAVYKNWVFTDQALPADLIKRGVAIKDPSTPHGVRLLIEDYPYAADGLEIWAAIKTWVQEYVPLYYARDDDVKNDSELQHWWKEAVEKGHGDLKDKPWWPKLQTLEDLVEVCLIIIWIASALHAAVNFGQYPYGGLIMNRPTASRRLLPEKGTPEYEEMINNHEKAYLRTITSKLPTLISLSVIEILSTHASDEVYLGQRDNPHWTSDSKALQAFQKFGNKLKEIEEKLVRRNNDPSLQGNRLGPVQLPYTLLYPSSEEGLTFRGIPNSISI
B1: the RuT activity entry in assay [2] (lipoxygenase alone) is “activity similar to positive controls”; in assay [2] (lipoxygenase alone, listed as Lipoxygenase) it was “did not appear to affect RuT activity”. The “inhibition of rubber biosynthesis” value in assay [2] (lipoxygenase treatment and AOS inhibition) is on record as 30%.
